Two compounds from US20260137786A1, “FLUORESCENT COMPOUNDS FOR SYNERGISTIC PHOTODYNAMIC AND PHOTOTHERMAL CANCER THERANOSTIC” (The Hong Kong University of Science and Technology, priority 2022, published 2026) can be followed below.

Common to all, as to format: physicochemical
The nature of data set [1]: Fluorescence quantum yield (QY). As for the experimental part:
The fluorescence quantum yield (QY) of the two compounds in the solid state, NPs, THF, and other solvents, were also measured (FIG. 3d).
For better use in cancer theranostic, TPA-TBT and TPE-TBT were fabricated into nanoparticles (NPs) through the nanoprecipitation method using DSPE-PEG2000 as an encapsulation matrix. The hydrodynamic diameters of the two NPs were confirmed by dynamic light scattering (DLS). […] The UV/Vis absorption and fluorescence emission spectra of the two kinds of NPs were also measured, and the results are similar to that in the THF solutions. The fluorescence quantum yield (QY) of the two compounds in the solid state, NPs, THF, and other solvents, were also measured (FIG. 3d). […] ROS production efficiency and PCE were investigated to further explore the phototherapy potential of these AIEgens. We utilized a common ROS indicator Dichlorofluorescin Diace (H2DCF-DA), whose fluorescence can be sensitively activated by ROS, to indicate the overall ROS generation. From FIG. 3e, the fluorescence intensity of H2DCF-DA intensified rapidly in the presence of TPA-TBT NPs. Finally, it reached around 210-fold more robust than the initial intensity after 5 min upon white light irradiation, displaying a much higher ROS production efficiency than TPE-TBT NPs. […] While the PCE of TPE-TBT NPs is only 30%. Considering all the aspects, TPA-TBT NPs show longer fluorescence emission wavelength, higher ROS generation efficiency, and better photothermal efficiency. Therefore, TPA-TBT NPs are more promising for applications in the field of phototheranostic for synergistic cancer therapy.

Data set [2] in a line: Absorption and emission (PL) spectra in THF solution. Conditions: for emission spectra peak / maximum absorption: 10 μM. As for the experimental part: (§1) First, the absorption and emission spectra were recorded. From FIG. 3a, the maximum absorptions of TPE-TBT and TPA-TBT are located at 582 and 620 nm, respectively, which display a redshift because of the enhancement of D-A strength from TPE-TBT to TPA-TBT. In addition, the emission spectra of the two molecules peaked at 750 and 830 nm, respectively (FIG. 3b). […] The aggregation behaviors of the compounds were then investigated. After adding poor solvent water to the THE solution, the fluorescence intensities of the two luminogens are first reduced at low water fractions (0-50% of water) resulting from the twisted intramolecular charge transfer (TICT) effect.

Data set [3] is described as follows: Aggregation behaviour (AIE) in THF/water mixtures. Conditions: increasing water fraction. As for the experimental part: as §1

For `CCCCCCC(CCCC)Cc1cc(-c2ccc(C(=C(c3ccc(OC)cc3)c3ccc(OC)cc3)c3ccccc3)cc2)sc1-c1c2c(c(-c3sc(-c4ccc(C(=C(c5ccc(OC)cc5)c5ccc(OC)cc5)c5ccccc5)cc4)cc3CC(CCCC)CCCCCC)c3nn(CC(CC)CCCC)nc13)N=S=N2` (stereo not drawn) [TPE-TBT], the “fluorescence quantum yield (QY)” value in data set [1] (THE solution / solution state) is “remarkable QY”. In data set [2], this compound displayed an emission spectra peak of 750 nm and a maximum absorption of 582 nm.
As to `CCCCCCC(CCCC)Cc1cc(-c2ccc(N(c3ccc(OC)cc3)c3ccc(OC)cc3)cc2)sc1-c1c2c(c(-c3sc(-c4ccc(N(c5ccc(OC)cc5)c5ccc(OC)cc5)cc4)cc3CC(CCCC)CCCCCC)c3nn(CC(CC)CCCC)nc13)N=S=N2` (stereo not drawn) [TPA-TBT], the AIE intensity enhancement in data set [3] came out at 3 fold. Further, the “fluorescence quantum yield (QY)” value in data set [1] (THE solution / solution state) is reported as 5%. Besides, the “fluorescence quantum yield (QY)” value in data set [1] (solid state) turned out to be 13%. For the same compound, in data set [2], the Stokes shift was 210 nm, the emission spectra peak is reported as 830 nm and the maximum absorption is listed as 620 nm.
